Legend:
[1] = In vivo absorption of orally administered paclitaxel; conditions: rats, oral 20 mg/kg paclitaxel with the compound (Control: with vehicle)
Method: In order to investigate the activity of the inventive compounds prepared in Examples, in vivo absorption tests were carried out as follows.
Blood samples were taken directly from the heart of each rat before and 1, 2, 4, 6, 8 and 24 hours after the administration.
Each of blood samples was centrifuged at 12,000 rpm to obtain a serum sample, 200 μl of which was mixed with 400 μl of acetonitrile (an internal standard) and the mixture was shaken to obtain an extract. The extract was centrifuged at 12,000 rpm, 4° C. for 5 min to obtain a supernatant.

[2] = test system: MCF-7/Dox cell, which is MCF-7 expressing p-glycoprotein; conditions: enhancement of anticancer activity of paclitaxel against MCF7/Dox; ED50 of paclitaxel alone / ED50 with 50 nM test compound
Method: The cells were subcultured in 5% FBS (fetal bovine serum)/RPMI1640 medium supplemented with glutamine 2 mmol, sodium bicarbonate 3.7 g/L and gentamicin 10 mg/L at 37° C. in 5% CO2 incubator under 100% humidity, and collected using a 0.25% trypsin solution containing 3 mM 1,2-cyclohenxandiamine tetraacetic acid.
The collected cells were plated on a 96 well flat-bottomed plate at a density of 2×10^3 cells/well, and incubated in the same medium for 24 hours. Paclitaxel, an anticancer agent, was diluted with the same medium to obtain 10^−11˜10^−6 M test solutions. […] After incubating for 72 hours, the culture medium was removed, each well was treated with 10% trichloroacetic acid for 1 hour to fix the cells, washed with water, and dried at room temperature. After adding a dyeing solution containing 1% acetic acid with 0.4% SRB (sulforhodamine B) thereto, the wells were kept at room temperature for 30 min, and washed with 1% acetic acid to remove remaining SRB. […] Also, the enhancement of the anticancer activity of paclitaxel against MCF7/Dox (resistant cancer cells) was measured by determining ED^PAC50/ED50, wherein ED^PAC50 is the value determined for the case of paclitaxel alone.

**Q.** For `COc1cc2c(cc1OC)CN(CCc1ccc(-n3nnc(-c4cc(OC)c(OC)cc4NC(=O)c4cnc5ccccc5c4)n3)cc1)CC2` [Example 1, quinoline-3-carboxylic acid [2-(2-4-[2-(6,7-dimethoxy-3,4-dihydro-1H-isoquinolin-2-yl)-ethyl]-phenyl-2H-tetrazol-5-yl)-4,5-dimethoxy-phenyl]-amide], which “AUC (ng · hr/ml), area under the curve of blood concentration till 24 hours” value [1] is on record?
**A.** 3,032 ± 1,108 ng · hr/ml

**Q.** And the “Cmax (ng/ml), maximum blood concentration” value [1]?
**A.** 1,172 ± 433 ng/ml

**Q.** What about the “Tmax (hr), time at the maximum blood concentration” value [1] of the same compound?
**A.** 1.0 h

**Q.** What about the “ED50^PAC/ED50” value [2] of the same compound?
**A.** 20.3

**Q.** For `COc1cc2c(cc1OC)CN(CCc1ccc(-n3nnc(-c4cc(OC)c(OC)cc4NC(=O)C=Cc4ccccc4)n3)cc1)CC2` [Example 31, N-[2-(2-{4-[2-(6,7-dimethoxy-3,4-dihydro-1H-isoquinolin-2-yl)-ethyl]-phenyl}-2H-tetrazol-5-yl)-4,5-dimethoxy-phenyl]-3-phenyl-acrylamide], which “ED50^PAC/ED50” value [2] is on record?
**A.** 2.7

**Q.** With `COc1cc2c(cc1OC)CN(CCc1ccc(-n3nnc(-c4cc(OC)c(OC)cc4NC(=O)c4cc(=O)c5cc(Br)ccc5o4)n3)cc1)CC2` [Example 25, 6-bromo-4-oxo-4H-chromene-2-carboxylic acid [2-(2-{4-[2-(6,7-dimethoxy-3,4-dihydro-1H-isoquinolin-2-yl)-ethyl]-phenyl}-2H-tetrazol-5-yl)-4,5-dimethoxy-phenyl]-amide] as the compound, how does the “ED50^PAC/ED50” value [2] read?
**A.** 28.6

**Q.** With `COc1cc2c(cc1OC)CN(CCSc1ccc(-n3nnc(-c4cc(OC)c(OC)cc4NC(=O)c4cnc5ccccc5c4)n3)cc1)CC2` [Example 29, quinoline-3-carboxylic acid [2-(2-{4-[2-(6,7-dimethoxy-3,4-dihydro-1H-isoquinolin-2-yl)-ethylsulfanyl]-phenyl}-2H-tetrazol-5-yl)-4,5-dimethoxy-phenyl]-amide] as the compound, how does the “ED50^PAC/ED50” value [2] read?
**A.** 21.3

**Q.** For `COc1cc2c(cc1OC)CN(CCc1ccc(-n3nnc(-c4cc(OC)c(OC)cc4NC(=O)c4ccccc4)n3)cc1)CC2` [Example 13, N-[2-(2-{4-[2-(6,7-dimethoxy-3,4-dihydro-1H-isoquinolin-2-yl)-ethyl]-phenyl}-2H-tetrazol-5-yl)-4,5-dimethoxy-phenyl]-benzamide], which “ED50^PAC/ED50” value [2] is on record?
**A.** 3.4

**Q.** For `COc1cc2c(cc1OC)CN(CCc1ccc(-n3nnc(-c4cc(OC)c(OC)cc4NC(=O)c4ccnc5ccccc45)n3)cc1)CC2` [Example 6, quinoline-4-carboxylic acid [2-(2-{4-[2-(6,7-dimethoxy-3,4-dihydro-1H-isoquinolin-2-yl)-ethyl]-phenyl}-2H-tetrazol-5-yl)-4,5-dimethoxy-phenyl]-amide], which “ED50^PAC/ED50” value [2] is on record?
**A.** 3.3

**Q.** For `COc1cc2c(cc1OC)CN(CCc1ccc(-n3nnc(-c4cc(OC)c(OC)cc4NC(=O)c4ccncc4)n3)cc1)CC2` [Example 11, N-[2-(2-{4-[2-(6,7-dimethoxy-3,4-dihydro-1H-isoquinolin-2-yl)-ethyl]-phenyl}-2H-tetrazol-5-yl)-4,5-dimethoxy-phenyl]-isonicotinamide], which “ED50^PAC/ED50” value [2] is on record?
**A.** 3.2
